Consider two compounds from patent publication US20030113312A1, “Skin barrier function and cohesion through enhanced stratum corneum acidification” (The Regents of the University of California, priority 2001, published 2003).

“And” between values parts separate entries of the source, which are not always exact repeats. Identical values can stand only once.

Data set [1] relates to hairless mice skin (stratum corneum). Put plainly: Skin surface pH after topical treatment or buffer exposure. It counts as in vivo, mouse. The conditions noted are these: for pH of the stratum corneum: BPB alone, three days.
Protocol: Animals: Male hairless mice (Skh1/Hr, Charles River Laboratories, Wilmington, Mass.), 8-12 weeks old, were fed Purina mouse diet and water ad libitum. […] Functional experiments were performed on animals aged 6-10 weeks.
The mice were anesthetized with chloral hydrate (Morton Grove Pharmaceuticals, Morton Grove, Ill., USA). After 3 hours immersion at 37° C., the mice were removed, and the remaining buffer was gently blotted off. After 15 minutes, barrier function was determined by measurement of transepidermal water loss (TEWL) with an electrolytic water analyzer (MEECO®, Warrington, Pa.). Surface pH was measured with a flat, glass surface electrode from Mettler-Toledo (Giessen, Germany), attached to a pH meter (Skin pH Meter PH 900, Courage & Khazaka, Cologne, Germany). Individually tested sites were covered with Hilltop Chambers (HtC, nominal volume 200 mL), which were reapplied following each indvidual measurement.
Data set [2] shares this test system. The data set is described as follows: Barrier function by transepidermal water loss (TEWL). It counts as in vivo, mouse. The method, then: Animals: Male hairless mice (Skh1/Hr, Charles River Laboratories, Wilmington, Mass.), 8-12 weeks old, were fed Purina mouse diet and water ad libitum. […] Each litter was genotyped separately. Functional experiments were performed on animals aged 6-10 weeks.
The mice were anesthetized with chloral hydrate (Morton Grove Pharmaceuticals, Morton Grove, Ill., USA). After 3 hours immersion at 37° C., the mice were removed, and the remaining buffer was gently blotted off. After 15 minutes, barrier function was determined by measurement of transepidermal water loss (TEWL) with an electrolytic water analyzer (MEECO®, Warrington, Pa.). Surface pH was measured with a flat, glass surface electrode from Mettler-Toledo (Giessen, Germany), attached to a pH meter (Skin pH Meter PH 900, Courage & Khazaka, Cologne, Germany). Individually tested sites were covered with Hilltop Chambers (HtC, nominal volume […]), which were reapplied following each indvidual measurement.

Data set [3] has the same test system. Put plainly: Stratum corneum integrity: TEWL after sequential tape stripping. Format: in vivo, mouse.
Protocol: The mice were anesthetized with chloral hydrate (Morton Grove Pharmaceuticals, Morton Grove, Ill., USA). […] After 15 minutes, barrier function was determined by measurement of transepidermal water loss (TEWL) with an electrolytic water analyzer (MEECO®, Warrington, Pa.). […] Individually tested sites were covered with Hilltop Chambers (HtC, nominal volume 200 mL), which were reapplied following each indvidual measurement.
The stratum corneum was removed by several strippings with adhesive tape (Tesa, Beiersdorf, Germany) inducing an increase in TEWL rates above baseline (from 0.2 to approximately 7-9 g/m^2/h). Two sites were prepared on each animal, and TEWL and surface pH were measured at 0, 2, 5 and 24 hrs following the stripping and the applications of inhibitors.
For data set [4], the system named is desmosomes in the lower stratum corneum. The data set is described as follows: Desmosome density by microscopy and desmoglein-1 immunostaining. Format: in vivo, mouse. Particulars: for density of desmosomes in lower stratum corneum and at SC-SG interface: inhibitor-treated murine skin vs controls. From the text:
Ultrastructural methods: Freshly obtained biopsies from mouse skin were fixed directly in modified Karnovsky's fixative, postfixed with reduced osmium tetroxide (OS04) and then imbedded in an Epon-epoxy mixture. For visualization of lipid-enriched, lamellar bilayer structures, some samples were post fixed in ruthenium tetroxide (RuO4). Sections were cut on a Reichert Ultracut E microtome, counterstained with uranyl acetate and lead citrate, and viewed in a Zeiss 10 CR electron microscope, operated at 60 kV.
Immunofluorescence Staining: Hairless mouse skin was excised with a 6 mm punch biopsy, and the subcutaneous fat was removed. Tissue sections were incubated for 1 hour in blocking buffer (1% bovine serum albumin, 0.1% cold water fish gelatin in phosphate buffered saline (PBS)), and were then incubated for 1 hour further at room temperature with 1:500 dilution of polyclonal rabbit anti-mouse desmoglein 1 antibody (gift of Dr. John Stanley, University of Pennsylvania) diluted in blocking buffer. The tissue was then washed with blocking buffer and incubated one hour at room temperature with floroscien-labeled, isothiocyanate-conjugated, goat anti-rabbit IgG antibody (DAKO, Carpinteria, Calif., USA), diluted in blocking buffer. Either preincubation of DSG 1 antibody with DSG 1-recombinant protein (gift of Dr. Masayuki Amagai, Keio University, Tokyo, Japan), or omission of the DSG 1 primary antibody eliminated specific staining. Tissue sections then were washed with PBS and coverslipped before visualization under confocal microscope (Leica TCS SP, Heidlberg, Germany) using FITC at an excitation wavelength of 494 nm and an emisson wavelength of 518 nm.
To further investigate the changes in stratum corneum cohesion that are brought about by application of secretory phospholipase A2 inhibitors, BPB and MJ33 treated samples of murine skin and the corresponding untreated controls, were assessed by immunohistochemical staining and confocal microscopy. […]

Data set [5] has as its system Murine skin. The conditions noted are these: 4 mg/mL topical in propylene glycol:ethanol; cited from earlier work.
The subject of data set [6] is hairless mice skin (stratum corneum). The data set is described as follows: Stratum corneum cohesion: protein removed per D-Squame stripping. Format: in vivo, mouse. The conditions noted are these: after three days of inhibitor treatment alone; vehicle about 5.
Protocol: Before stripping the stratum corneum, the skin surface was cleaned with a single ethanol wipe. D-Squame tapes then were placed sequentially to the test areas for about 3 sec each, removed with forceps, and stored in glass scintillation vials at 5° C.
The protein content per stripping was determined with the Bio-Rad protein assay kit. […] Each tape was incubated with 1 M NaOH for 1 hour at 37° C. in an incubator shaker at 80 rpm, and neutralized thereafter with 1 mL of 1 M HCl in the scintillation vials. Subsequently, 0.2 mL of this solution was incubated in 0.6 ml distilled water plus 0.2 mL of the Bio-Rad protein dye for 5 minutes in boroscillate tubes. […] An empty D-Squame tape, as well as distilled water incubated with Bio-Rad dye, served as negative controls. The amount of calculated protein was then normalized to skin surface area (μg/cm^2).

With `CCCCCCCCCCCCCCCCOCC(COCC(F)(F)F)OP(=O)(O)OC` (stereo not shown) [MJ33, One-hexadecyl-3-triflouroethylglycero-sn-2-phosphomethanol], the “stratum corneum surface pH” value in data set [1] (MJ33 4 mg/mL topical, vs vehicle 5.60+/-0.05, p=0.0023) is given as 5.87+/−0.06. The “fold increase in TEWL rates” value in data set [2] (by day three, vs vehicle) is given as 2-3 fold. Moreover, in data set [2] (repeated applications, day three, vs vehicle 2.97+/-0.16, p<0.001), the TEWL rate is reported as 5.19+/−0.81. In addition, in data set [3] (day 3 of inhibitor treatment alone, vehicle closer to 40), the “TEWL rate after three consecutive tape strips” value was roughly 75 g/m^2/h. Also, the “density of desmosomes in lower stratum corneum and at SC-SG interface” value in data set [4] is on record as “dramatic reduction”. Moreover, the “toxicity of the dose employed to Murine skin” value in data set [5] is listed as “non-toxic”.

As for `O=C(CBr)c1ccc(Br)cc1` [BPB, bromphenacyl bromide], the “pH of the stratum corneum” value in data set [1] (comparator of the linoleic acid co-application) is 6.28+/−0.1; in data set [1] (comparator of the palmitic acid co-application) it was 5.92+/−0.05; in data set [1] (comparator of the stearic acid co-application), 6.17+/−0.08. In data set [1] (hairless mice, 4 mg/mL topical twice daily, after one day, starting value about pH 5.6), the “pH of the skin” value is roughly 6.0 pH. In data set [1] (hairless mice, 4 mg/mL topical twice daily, day 3, vehicle close to pH 5.4), the “final average pH of treated sites” value is recorded as roughly 6.4 pH. Besides, the TEWL rate in data set [2] (4 mg/mL topical twice daily, day 2, vehicle closer to 2.5) is listed as roughly 6 g/m^2/h; in data set [2] (4 mg/mL topical twice daily, day three, vehicle near 3), roughly 11 g/m^2/h. In addition, the “TEWL rate after fifth tape strip” value in data set [3] (after three days of inhibitor treatment alone, vehicle close to 25) is ~90 g/m^2/h and 80-100 g/m^2/h. The “TEWL rate after second tape strip” value in data set [3] (after three days of inhibitor treatment alone, vehicle closer to 5) is roughly 20 g/m^2/h. For the same compound, the “protein removed, first D-Squame strip” value in data set [6] was “about 20 μg/cm^2”. Besides, the “density of desmosomes in lower stratum corneum and at SC-SG interface” value in data set [4] is on record as “dramatic reduction”. Besides, the “density of DSG1 positive clusters” value in data set [4] (laser confocal microscopy, treated vs vehicle stratum corneum) was “decline dramatically”. Further, the “toxicity of the dose employed to Murine skin” value in data set [5] is recorded as “non-toxic”.
